Laboratory results as given in US11827616B2, “Heterocyclic compounds as pesticides” (Discovery Purchaser Corporation, priority 2018, dated 2023).

Key:
Type in all cases: in vivo
Lucilia cuprina = Lucilia cuprina test; settings: application rate 100 ppm; L1 larvae; after 2 days
Description: (§1) Solvent: dimethyl sulfoxide
To produce a suitable active compound formulation, 10 mg of active compound are mixed with 0.5 ml of dimethyl sulfoxide, and the concentrate is diluted with water to the desired concentration.
About 20 L1 larvae of the Australian sheep blowfly (Lucilia cuprina) are transferred into a test vessel containing minced horsemeat and the active compound formulation of the desired concentration.
After 2 days, the kill in % is determined. 100% means that all the larvae have been killed; 0% means that no larvae have been killed.

Rhipicephalus sanguineus = Rhipicephalus sanguineus in vitro contact test with adult brown dog ticks; settings: application rate 5 μg/cm^2 (=500 g/ha); after 48 h
Description: Rhipicephalus sanguineus—In Vitro Contact Tests with Adult Brown Dog Ticks
(§2) For the coating of the test tubes, 9 mg of active compound are first dissolved in 1 ml of acetone p.a. and then diluted to the desired concentration with acetone p.a. 250 μl of the solution are distributed homogeneously on the inner walls and the base of a 25 ml glass tube by turning and rocking on an orbital shaker (rocking rotation at 30 rpm for 2 h). With 900 ppm of active compound solution and internal surface area 44.7 cm^2, given homogeneous distribution, an area-based dose of 5 μg/cm^2 is achieved.
After the solvent has evaporated off, the tubes are populated with 5-10 adult dog ticks (Rhipicephalus sanguineus), sealed with a perforated plastic lid and incubated in a horizontal position in the dark at room temperature and ambient humidity. After 48 h, efficacy is determined. To this end, the ticks are knocked to the base of the tube and incubated on a hotplate at 45-50° C. for not more than 5 min. Ticks which remain motionless on the base or move in such an uncoordinated manner that they are unable to deliberately avoid the heat by climbing upwards are considered to be dead or moribund.
An efficacy of 100% means that all the ticks were dead or moribund. 0% efficacy means that none of the ticks were harmed.

Phaedon cochleariae = Phaedon cochleariae spray test; settings: application rate 500 g/ha; after 7 days
Description: Phaedon cochleariae—Spray Test
(§3) Solvent: 78.0 parts by weight of acetone • • 1.5 parts by weight of dimethylformamide
(§4) Emulsifier: alkylaryl polyglycol ether
(§5) To produce a suitable active compound formulation, 1 part by weight of active compound is dissolved with the specified parts by weight of solvent and made up to the desired concentration with water containing an emulsifier concentration of 1000 ppm. To produce further test concentrations, the formulation is diluted with emulsifier-containing water.
Discs of Chinese cabbage leaves (Brassica pekinensis) are sprayed with an active compound formulation of the desired concentration and, after drying, populated with larvae of the mustard beetle (Phaedon cochleariae).
After 7 days, the efficacy in % is determined. 100% means that all the beetle larvae have been killed; 0% means that no beetle larvae have been killed.

Spodoptera frugiperda = Spodoptera frugiperda spray test; settings: application rate 500 g/ha; after 7 days
Description: Spodoptera frugiperda—Spray Test
as §3, §4, §5
Leaf discs of maize (Zea mays) are sprayed with an active compound formulation of the desired concentration and, after drying, populated with caterpillars of the fall armyworm (Spodoptera frugiperda).
After 7 days, the efficacy in % is determined. 100% means that all the caterpillars have been killed; 0% means that no caterpillar has been killed.

Boophilus microplus = Boophilus microplus injection test; settings: application rate 20 μg/animal, after 7 days
Description: Boophilus microplus—Injection Test
as §1
To produce a suitable active compound formulation, 10 mg of active compound are mixed with 0.5 ml of solvent and the concentrate is diluted to the desired concentration with solvent.
1 μl of the active compound solution is injected into the abdomen of 5 engorged adult female cattle ticks (Boophilus microplus). The animals are transferred into dishes and kept in a climate-controlled room.
Efficacy is assessed after 7 days by laying of fertile eggs. Eggs which are not visibly fertile are stored in a climate-controlled cabinet until the larvae hatch after about 42 days. An efficacy of 100% means that none of the ticks has laid any fertile eggs; 0% means that all the eggs are fertile.

Ctenocephalides felis [1] = experiment: Ctenocephalides felis in vitro contact test with adult cat fleas; settings: application rate 5 μg/cm^2 (=500 g/ha); after 48 h
Description: Ctenocephalides felis—In Vitro Contact Tests with Adult Cat Fleas
as §2
After the solvent has evaporated off, the tubes are populated with 5-10 adult cat fleas (Ctenocephalides felis), sealed with a perforated plastic lid and incubated in a horizontal position at room temperature and ambient humidity. After 48 h, efficacy is determined. To this end, the tubes are stood upright and the fleas are knocked to the base of the tube. Fleas which remain motionless at the base or move in an uncoordinated manner are considered to be dead or moribund.
100% efficacy means that all the fleas were dead or moribund. 0% efficacy means that no fleas were harmed.

Tetranychus urticae = Tetranychus urticae spray test, OP-resistant; settings: after 6 days
Description: Tetranychus urticae—Spray Test, OP-Resistant
Solvent: 78.0 Parts by Weight of Acetone • • 1.5 parts by weight of dimethylformamide
as §4, §5
Discs of bean leaves (Phaseolus vulgaris) infested with all stages of the greenhouse red spider mite (Tetranychus urticae) are sprayed with an active compound formulation of the desired concentration.
After 6 days, the efficacy in % is determined. 100% means that all the spider mites have been killed; 0% means that no spider mites have been killed.

[2] = tested on: Anopheles gambiae strain RSPH (homozygot kdr); experiment: Anopheles test (ANPHGB surface treatment); settings: 24 hours after contact, read-out: efficacy (mortality in %)
Description: Anopheles Test (ANPHGB Surface Treatment)
Solvent: acetone+2000 ppm rapeseed oil methyl ester (RME)
To produce an appropriate active compound formulation, the active compound is dissolved in the solvent (2 mg/ml). The active compound formulation is pipetted onto a glazed tile and, after it has dried off, adult mosquitoes of the species Anopheles gambiae strain RSPH (homozygot kdr) are placed onto the treated tile. The exposure time is 30 minutes.
24 hours after contact with the treated surface, mortality in % is determined. 100% means that all mosquitoes have been killed; 0% means that none of the mosquitoes have been killed.

Ctenocephalides felis [3] = experiment: Ctenocephalides felis oral test; settings: application rate 100 ppm in citrated cattle blood; after 2 days
Description: Ctenocephalides felis—Oral Test
as §1
To produce a suitable active compound formulation, 10 mg of active compound are mixed with 0.5 ml of dimethyl sulfoxide. Dilution with citrated cattle blood gives the desired concentration.
About 20 unfed adult cat fleas (Ctenocephalides felis) are placed into a chamber which is closed at the top and bottom with gauze. A metal cylinder whose bottom end is closed with parafilm is placed onto the chamber. The cylinder contains the blood/active compound formulation, which can be imbibed by the fleas through the parafilm membrane.
After 2 days, the kill in % is determined. 100% means that all of the fleas have been killed; 0% means that none of the fleas have been killed.

Structure (SMILES): CON(C)CCOc1ccc(COc2cccc3c(Cl)c(Cl)ccc23)cn1 [Example 1]
- efficacy (kill in %) (Lucilia cuprina): 100%
- efficacy (ticks dead or moribund) (Rhipicephalus sanguineus): 100%
- efficacy (Phaedon cochleariae): 100%
- efficacy (Spodoptera frugiperda): 100%
- efficacy (laying of fertile eggs) (Boophilus microplus): 100%
- efficacy (fleas dead or moribund) (Ctenocephalides felis [1]): 100%
- efficacy (Tetranychus urticae; application rate 500 g/ha): 100%

Structure (SMILES): CON(C)CCOc1ccc(COc2cccc(-c3ccccc3)c2)cn1 [Example 13]
- efficacy (ticks dead or moribund) (Rhipicephalus sanguineus): 100%
- efficacy (Phaedon cochleariae): 100%
- efficacy (laying of fertile eggs) (Boophilus microplus): 100%
- efficacy (fleas dead or moribund) (Ctenocephalides felis [1]): 100%
- efficacy (Tetranychus urticae; application rate 500 g/ha): 90%

Structure (SMILES): CON(C)CCOc1ccc(COc2cccc3c(Cl)c(Cl)ccc23)nc1F [Example 17, 2-[(6-{[(5,6-dichloro-1-naphthyl)oxy]methyl}-2-fluoropyridin-3-yl)oxy]-N-methoxy-N-methylethanamine]
- pest or weed control at 0.02 mg (Boophilus microplus; Rhipicephalus microplus, 168 h, read-out: efficacy (laying of fertile eggs)): 100%
- mortality at 20 mg/m2 ([2]; application rate 20 mg/m^2, exposure 30 minutes): 80 to 100%
- mortality at 100 mg/m2 ([2]; application rate 100 mg/m^2, exposure 30 minutes): 80 to 100%

Structure (SMILES): CN(CC#N)CCOc1cnc(COc2ccc(Cl)c3ccccc23)c(F)c1 [Example 27]
- efficacy (ticks dead or moribund) (Rhipicephalus sanguineus): 100%
- efficacy (Phaedon cochleariae): 100%
- efficacy (Spodoptera frugiperda): 100%
- efficacy (laying of fertile eggs) (Boophilus microplus): 100%
- efficacy (Tetranychus urticae; application rate 500 g/ha): 90%

Structure (SMILES): CC(C)N(C)CCOc1cnc(COc2cccc3c(Cl)c(Cl)ccc23)c(F)c1 [Example 44]
- efficacy (Phaedon cochleariae): 100%
- efficacy (Spodoptera frugiperda): 100%
- efficacy (laying of fertile eggs) (Boophilus microplus): 100%
- efficacy (fleas dead or moribund) (Ctenocephalides felis [1]): 100%
- efficacy (Tetranychus urticae; application rate 100 g/ha): 90%

Structure (SMILES): CON(C)CCOc1cnc(COc2ccc(F)c(-c3cccc(Cl)c3)c2)c(F)c1 [Example 49]
- efficacy (kill in %) (Lucilia cuprina): 100%
- efficacy (ticks dead or moribund) (Rhipicephalus sanguineus): 100%
- efficacy (Phaedon cochleariae): 100%
- efficacy (Spodoptera frugiperda): 100%
- efficacy (laying of fertile eggs) (Boophilus microplus): 100%
- efficacy (fleas dead or moribund) (Ctenocephalides felis [1]): 100%
- efficacy (Tetranychus urticae; application rate 500 g/ha): 100%

Structure (SMILES): CON(C)CCOc1cnc(COc2ccc(Cl)c(-c3cccc(Cl)c3)c2)c(F)c1 [Example 56]
- efficacy (kill in %) (Lucilia cuprina): 100%
- efficacy (ticks dead or moribund) (Rhipicephalus sanguineus): 100%
- efficacy (Phaedon cochleariae): 100%
- efficacy (Spodoptera frugiperda): 100%
- efficacy (laying of fertile eggs) (Boophilus microplus): 100%
- efficacy (fleas dead or moribund) (Ctenocephalides felis [1]): 100%
- efficacy (Tetranychus urticae; application rate 500 g/ha): 100%

Structure (SMILES): CON(C)CCOc1cnc(COc2ccc(Cl)c(-c3cccc(F)c3)c2)c(F)c1 [Example 61]
- efficacy (kill in %) (Ctenocephalides felis [3]): 90%
- efficacy (kill in %) (Lucilia cuprina): 100%
- efficacy (ticks dead or moribund) (Rhipicephalus sanguineus): 100%
- efficacy (Spodoptera frugiperda): 100%
- efficacy (laying of fertile eggs) (Boophilus microplus): 100%
- efficacy (fleas dead or moribund) (Ctenocephalides felis [1]): 100%
- efficacy (Tetranychus urticae; application rate 500 g/ha): 90%

Structure (SMILES): CON(C)CCOc1ccc(COc2cccc(-c3cccc(OC(F)(F)F)c3)c2)nc1 [Example 64]
- efficacy (ticks dead or moribund) (Rhipicephalus sanguineus): 100%
- efficacy (Phaedon cochleariae): 100%
- efficacy (Spodoptera frugiperda): 83%
- efficacy (laying of fertile eggs) (Boophilus microplus): 100%
- efficacy (fleas dead or moribund) (Ctenocephalides felis [1]): 100%
- efficacy (Tetranychus urticae; application rate 500 g/ha): 90%

Structure (SMILES): CON(C)CCOc1ccc(COc2ccc(F)c(-c3cccc(Cl)c3)c2)nc1 [Example 65]
- efficacy (kill in %) (Lucilia cuprina): 90%
- efficacy (ticks dead or moribund) (Rhipicephalus sanguineus): 100%
- efficacy (Spodoptera frugiperda): 100%
- efficacy (laying of fertile eggs) (Boophilus microplus): 100%
- efficacy (fleas dead or moribund) (Ctenocephalides felis [1]): 100%
- efficacy (Tetranychus urticae; application rate 500 g/ha): 100%

Structure (SMILES): CON(C)CCOc1cnc(COc2cccc(-c3ccccc3)c2)c(F)c1 [Example 70]
- efficacy (kill in %) (Lucilia cuprina): 100%
- efficacy (ticks dead or moribund) (Rhipicephalus sanguineus): 100%
- efficacy (Phaedon cochleariae): 100%
- efficacy (laying of fertile eggs) (Boophilus microplus): 100%
- efficacy (fleas dead or moribund) (Ctenocephalides felis [1]): 100%
- efficacy (Tetranychus urticae; application rate 500 g/ha): 90%

Structure (SMILES): CON(C)CCOc1cnc(COc2ccc(Cl)c(OC(F)(F)F)c2)c(F)c1 [Example 72]
- efficacy (kill in %) (Ctenocephalides felis [3]): 95%
- efficacy (kill in %) (Lucilia cuprina): 100%
- efficacy (ticks dead or moribund) (Rhipicephalus sanguineus): 100%
- efficacy (Spodoptera frugiperda): 83%
- efficacy (laying of fertile eggs) (Boophilus microplus): 100%
- efficacy (fleas dead or moribund) (Ctenocephalides felis [1]): 100%
- efficacy (Tetranychus urticae; application rate 500 g/ha): 100%

Structure (SMILES): CON(C)CCOc1cnc(COc2ccc(Cl)c(I)c2)c(F)c1 [Example 76]
- efficacy (ticks dead or moribund) (Rhipicephalus sanguineus): 100%
- efficacy (Phaedon cochleariae): 100%
- efficacy (laying of fertile eggs) (Boophilus microplus): 100%
- efficacy (fleas dead or moribund) (Ctenocephalides felis [1]): 100%
- efficacy (Tetranychus urticae; application rate 100 g/ha): 90%
